Test in all cases: Binding of FITC-labeled collagen-binding peptides to coated wells (Example 6)
Assay [1] concerns type IV collagen. Particulars: 37° C., 3 hours. On the procedure:
(§1) The selectivity of collagen-binding peptides for components of the extracellular matrix was investigated. […] After washing, the fluorescence intensity was measured using a confocal laser scanning microscope.

For assay [2], the system named is laminin. Conditions: 37° C., 3 hours. On the procedure: as §1
In assay [3] the target is type I collagen (Homo sapiens, UniProt P02452+P08123).
Chain of type I collagen (P08123 80-1119): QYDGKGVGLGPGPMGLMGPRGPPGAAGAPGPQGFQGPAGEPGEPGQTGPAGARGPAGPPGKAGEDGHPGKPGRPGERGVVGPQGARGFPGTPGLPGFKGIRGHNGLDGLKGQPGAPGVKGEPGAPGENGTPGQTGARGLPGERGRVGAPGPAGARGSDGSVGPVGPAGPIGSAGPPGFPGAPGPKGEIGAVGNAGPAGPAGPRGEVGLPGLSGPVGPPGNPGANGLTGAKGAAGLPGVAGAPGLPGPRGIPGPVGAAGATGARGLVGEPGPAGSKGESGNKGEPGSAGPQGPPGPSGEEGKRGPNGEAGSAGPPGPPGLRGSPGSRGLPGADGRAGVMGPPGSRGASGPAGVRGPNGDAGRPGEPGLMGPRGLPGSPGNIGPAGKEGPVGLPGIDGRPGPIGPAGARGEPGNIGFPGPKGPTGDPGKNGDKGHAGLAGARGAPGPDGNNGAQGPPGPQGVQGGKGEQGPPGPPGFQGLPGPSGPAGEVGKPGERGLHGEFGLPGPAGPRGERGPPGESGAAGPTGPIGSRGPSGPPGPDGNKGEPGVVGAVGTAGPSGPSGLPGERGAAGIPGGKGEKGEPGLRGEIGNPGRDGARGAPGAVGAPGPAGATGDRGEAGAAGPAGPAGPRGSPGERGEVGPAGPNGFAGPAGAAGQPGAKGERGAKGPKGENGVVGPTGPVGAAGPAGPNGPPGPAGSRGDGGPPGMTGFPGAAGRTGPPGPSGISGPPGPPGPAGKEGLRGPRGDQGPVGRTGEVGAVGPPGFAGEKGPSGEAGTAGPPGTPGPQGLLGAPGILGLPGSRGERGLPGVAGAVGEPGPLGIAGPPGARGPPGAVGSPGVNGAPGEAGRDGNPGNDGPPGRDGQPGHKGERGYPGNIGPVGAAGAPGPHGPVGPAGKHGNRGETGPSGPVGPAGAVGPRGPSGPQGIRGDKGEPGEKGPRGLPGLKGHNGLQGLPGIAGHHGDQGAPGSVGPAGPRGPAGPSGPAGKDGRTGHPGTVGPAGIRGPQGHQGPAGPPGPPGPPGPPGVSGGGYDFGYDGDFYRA
Chain of type I collagen (P02452 162-1218): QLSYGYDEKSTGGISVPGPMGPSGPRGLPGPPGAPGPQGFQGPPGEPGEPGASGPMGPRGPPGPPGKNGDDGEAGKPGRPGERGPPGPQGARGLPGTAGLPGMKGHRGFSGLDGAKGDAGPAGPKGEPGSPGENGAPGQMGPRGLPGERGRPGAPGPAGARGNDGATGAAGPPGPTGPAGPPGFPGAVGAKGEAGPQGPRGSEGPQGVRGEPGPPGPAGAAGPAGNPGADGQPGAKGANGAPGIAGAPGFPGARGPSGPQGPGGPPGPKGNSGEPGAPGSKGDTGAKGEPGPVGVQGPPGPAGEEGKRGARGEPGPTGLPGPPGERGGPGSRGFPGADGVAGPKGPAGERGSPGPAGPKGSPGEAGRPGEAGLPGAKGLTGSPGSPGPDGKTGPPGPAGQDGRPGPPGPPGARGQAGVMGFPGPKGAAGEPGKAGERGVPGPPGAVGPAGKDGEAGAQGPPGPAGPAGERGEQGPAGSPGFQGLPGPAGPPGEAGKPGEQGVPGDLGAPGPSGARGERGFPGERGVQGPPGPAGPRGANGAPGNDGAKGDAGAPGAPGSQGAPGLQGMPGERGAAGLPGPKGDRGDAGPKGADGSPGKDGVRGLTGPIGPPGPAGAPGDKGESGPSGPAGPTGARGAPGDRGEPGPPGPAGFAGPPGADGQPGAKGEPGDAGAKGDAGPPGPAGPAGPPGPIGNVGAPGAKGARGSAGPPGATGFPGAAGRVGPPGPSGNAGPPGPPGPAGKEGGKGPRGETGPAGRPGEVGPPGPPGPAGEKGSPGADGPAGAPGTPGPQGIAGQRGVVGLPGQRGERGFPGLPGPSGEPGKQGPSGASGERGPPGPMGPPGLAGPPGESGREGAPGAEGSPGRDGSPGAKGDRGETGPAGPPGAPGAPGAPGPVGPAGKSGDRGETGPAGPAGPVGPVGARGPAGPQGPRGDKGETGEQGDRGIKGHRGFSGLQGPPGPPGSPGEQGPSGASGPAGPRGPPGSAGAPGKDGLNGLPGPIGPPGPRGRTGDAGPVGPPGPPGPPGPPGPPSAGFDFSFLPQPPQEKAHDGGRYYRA

For the substance SYIRIADNTNIT, the “binding to type IV collagen (fluorescence intensity)” value in assay [1] was “in a concentration-dependent manner”. Further, the “binding to laminin (fluorescence intensity)” value in assay [2] was “in a concentration-dependent manner”. Also, the “fluorescence intensity compared between peptides” value in assay [3] (100 μM (box in FIG. 6), type I collagen, type IV collagen, laminin wells) was “stronger than that of TKKTLRT”. For the same substance, the “binding to type I collagen (fluorescence intensity)” value in assay [3] (coated wells, 37° C., 3 hours) is listed as “in a concentration-dependent manner”. Also, in assay [3] (type I collagen, type IV collagen, laminin), the “selectivity for components of the extracellular matrix (order)” value was “type I collagen>type IV collagen>laminin”.

For TKKTLRT, the “binding to type IV collagen (fluorescence intensity)” value in assay [1] is on record as “in a concentration-dependent manner”. Further, the “binding to laminin (fluorescence intensity)” value in assay [2] is “in a concentration-dependent manner”.

Source of the values: US20260216400A1, “CELL-[…] MOLECULE IMPARTING PROTEIN ADHESION […] CELLS” (THE UNIVERSITY OF OSAKA, priority 2023, published 2026).
